Source: patent US20120039813A1, “INTRINSICALLY COLORED, LUMINESCENT SILK FIBROIN AND A METHOD OF PRODUCING THE SAME” (priority 2009, published 2012)
Entries after “also recorded” stand apart in the source; their conditions may differ.

Experiments:
silkworm [1] = experiment: Uptake of dyes into the silkworm and the silk fibroin after feeding dye-modified feed; type: in vivo; details: for Uptake of dye in worm / Uptake of dye in fibroin: dye fed to silkworm in modified feed; for Uptake of dye in fibroin: silk fibroin
Excerpt: The modified feed was then fed to silkworms starting on the third day of fifth instar. The silk gland, obtained through dissection, also absorbed the dye and became colored. At day 8-9 of fifth instar, the silkworms started producing intrinsically colored and fluorescent silk cocoon as shown in FIG. 3. […]

physchem = experiment: physchem
Excerpt: (§1) FIG. 12 depicts the quantity of various dyes in sericin and fibroin per gram of raw silk as a function of their n-octanol/water partition coefficient (log p).
(§2) FIG. 12 summarizes the amounts of various dyes distributed in silk's fibroin and sericin as a function of log P, a measure of hydrophobicity.

silkworm [2] = experiment: Quantity of various dyes in sericin, fibroin and gland content of dye-fed silkworms
Excerpt: as §1, §2

[3] = other dye molecules apart from the rhodamine series, feeding method

## CN(C)c1ccc2cc3ccc(N(C)C)cc3nc2c1 [Acridine orange, acridine orange]
Silkworm [1]; [3]
  Uptake into silk gland and silk: efficient uptake
physchem
  logP: 1.8
Silkworm [2]; in vivo
  Amount of dye present in silk (sericin and fibroin) and silkworm: very low concentration in silk
  Concentration in gland content: very low

## O=S1(=O)OC(c2cc(Br)c(O)c(Br)c2)(c2cc(Br)c(O)c(Br)c2)c2ccccc21 [Bromophenol blue]
Silkworm [1]; [3]
  Uptake into silk gland and silk: did not display significant uptake

## O=C1OC2(c3ccc(O)cc3Oc3cc(O)ccc32)c2ccccc21 [Fluorescein, fluorescein]
Silkworm [1]; [3]
  Uptake into silk gland and silk: did not display significant uptake
physchem
  logP: -0.79
Silkworm [2]; in vivo
  Amount of dye present in silk (sericin and fibroin) and silkworm: negligible presence in silk and in silkworm

## O=C(O)c1ccccc1C1=c2cc3c4c(c2Oc2c1cc1c5c2CCCN5CCC1)CCC[N+]=4CCC3.[Cl-] [Rhodamine 101, rhodamine 101]
Silkworm [1]
  Uptake of dye in worm: yes
  Uptake of dye in fibroin: yes
physchem
  log P (n-octanol/water partition coefficient): 2.19
Silkworm [2]; FIG. 12, result in words
  Amount of dye present in silk (sericin and fibroin) and silkworm: much higher concentration
  Distribution of dye between silk sericin and fibroin: majority residing in silk fibroin rather than sericin

## Cl.N=c1ccc2c(-c3ccccc3C(=O)O)c3ccc(N)cc3oc-2c1 [Rhodamine 110, rhodamine 110]
physchem
  log P (n-octanol/water partition coefficient): 1.17
Silkworm [2]; FIG. 12, result in words
  Amount of dye present in silk (sericin and fibroin) and silkworm: substantial amounts in both sericin and fibroin; also recorded: lower uptake

## CCN(CC)c1ccc2c(c1)Oc1cc(N(CC)CC)ccc1C21OC(=O)c2ccccc21 [Rhodamine B base, rhodamine B base]
Silkworm [1]
  Uptake of dye in worm: yes
  Uptake of dye in fibroin: yes

## CCN(CC)c1ccc2c(-c3ccccc3C(=O)O)c3ccc(=[N+](CC)CC)cc-3oc2c1.[Cl-] [Rhodamine B, rhodamine B]
Silkworm [1]
  Uptake of dye in worm: yes
  Uptake of dye in fibroin: yes
physchem; measure of hydrophobicity
  log P (n-octanol/water partition coefficient): 2.43
Silkworm [2]; FIG. 12, result in words
  Amount of dye present in silk (sericin and fibroin) and silkworm: much higher concentration
  Distribution of dye between silk sericin and fibroin: majority residing in silk fibroin rather than sericin
Silkworm [2]; in vivo
  Concentration in gland content: ~1000 µM

## O=S(=O)([O-])c1cc(S(=O)(=O)O)ccc1C1=c2cc3c4c(c2Oc2c1cc1c5c2CCCN5CCC1)CCC[N+]=4CCC3 [sulforhodamine 101]
physchem
  log P (n-octanol/water partition coefficient): −0.69
Silkworm [2]; in vivo
  Amount of dye present in silk (sericin and fibroin) and silkworm: negligible presence in silk and in silkworm

## Alcian blue
Silkworm [1]; in vivo
  Uptake into silk gland and silk: did not display significant uptake

## rhodamine 116
physchem; measure of hydrophobicity
  log P (n-octanol/water partition coefficient): 0.64

## rhodamine 123
Silkworm [1]
  Uptake of dye in worm: no
  Uptake of dye in fibroin: no
